Assay results published in US20250276955A1, “CORONAVIRUS MAIN PROTEASE INHIBITORS AND METHODS USING SAME” (Baylor College of Medicine, priority 2021, published 2025).
Values after ≈ are worked out from the molar mass of the structure shown. Where two headings read alike, the source gives them in different places.

How the values were obtained:
[1] = target: SARS-COV-2 M^pro (authentic N- and C-termini) (Severe acute respiratory syndrome coronavirus 2, UniProt P0DTD1); experiment: biochemical; assay type: biochemical; conditions: for M^pro Ki: 25 nM enzyme, 15 μM fluorescent peptide, Morrison equation, Inactive = less than 50% inhibition at 25 μM compound; for Ki,app: Table 5
SARS-COV-2 M^pro-His6 = SARS-COV-2 M^pro-His6 (Severe acute respiratory syndrome coronavirus 2, UniProt P0DTD1); experiment: biochemical; assay type: biochemical
[2] = Apparent solubility in PBS buffer; conditions: PBS buffer with 2% DMSO, aqueous buffer, kinetic from dmso stock
Human Cathepsin B = target: T1, Human Cathepsin B (Homo sapiens, UniProt P07858); experiment: Cathepsin B assay; assay type: biochemical
T1 construct: purchased BPS Bioscience 79590
Experimental: A kit from BPS Bioscience (#79590) was used with adjustments to the manufacturer's protocol as follows: The activated enzyme was diluted 250-fold just before use, and the reaction was run at RT in black 96 half-area plates in a total reaction volume of 50 uL containing 0.01% Tween-20. Instead of measuring endpoints at 60 min the increase in fluorescence (Ex 360 nm, Em 460 nm) per second (RFU/s) was obtained from linear progress curves over 10 min. Fractional activities were calculated from reactions with no inhibitors. E-64 was used as a positive control.

[3] = tested on: SARS-COV-2 (USA_WA1/2020 isolate) in VERO E6 cells; experiment: Real-Time Cell Analysis (RTCA) assay of SARS-COV-2 replication; assay type: cell-based; conditions: VERO E6 cells, 75 h
[4] = Metabolic stability in human liver microsomes; assay type: in vitro ADME; conditions: 0.5 mg protein/mL, 2.0 μM compound, 1.0 mM NADPH
Experimental: (§1) The samples were collected at specific time-points 0, 30, and 60 min in duplicate. The reactions were terminated by adding an equivalent volume of ice-cold methanol and vortexed. […] Three μL of the supernatant was analyzed by UHPLC-Q Exactive Orbitrap MS (Thermo Fisher Scientific, USA) equipped with 50 mm×4.6 mm column (XDB C-18, Agilent Technologies, USA). The column temperature was maintained at 40° C. The flow rate was at 0.3 mL/min with a 30% mobile phase (acetonitrile containing 0.1% formic acid). Q Exactive MS was operated in positive mode with electrospray ionization. Ultra-pure nitrogen was applied as the sheath (45 arbitrary unit), auxiliary (10 arbitrary unit), sweep (1.0 arbitrary unit) and the collision gas. […] MS data were acquired from 80 to 1,200 Da in profile mode.

[5] = Metabolic stability in mouse liver microsomes; assay type: in vitro ADME; conditions: 0.5 mg protein/mL, 2.0 μM compound, 1.0 mM NADPH
Experimental: as §1

[6] = Table 3, column b (footnote not given), read-out: Kiapp (nM)^b
[7] = Table 3, column a (footnote not given), read-out: Kiapp (nM)^a
[8] = Table 3, column b (footnote not given)
[9] = Table 3, column a (footnote not given)
[10] = 25 nM enzyme, 15 μM fluorescent peptide, Morrison equation, Inactive = less than 50% inhibition at 25 μM compound
[11] = Ki, app towards SARS-CoV-2 M^pro, athentic termini, authentic termini
[12] = Kiapp (nM)^b, Table 3, column b (footnote not given)

CCC[C@H](NC(=O)c1cccc2nc(-c3cncc4ccccc34)n(C3CCNCC3)c12)c1ccc(C(F)(F)F)cc1 [CDD-1818]
Ki [1, 6]: 1710 ± 128 nM
Ki (SARS-COV-2 M^pro-His6; [7]): 1470 ± 152 nM

CCC[C@H](NC(=O)c1cccc2nc(-c3cccnc3)n([C@H]3C[C@H](C(=O)NC)C3)c12)c1ccc(C(F)(F)F)cc1 [CDD-1831]
Kiapp (nM)^b [1]: Inactive
Kiapp (nM)^a (SARS-COV-2 M^pro-His6): Inactive

CCC[C@H](NC(=O)c1cccc2nc(-c3cncc4ccccc34)n(CCCC(=O)NC)c12)c1ccc(C)cc1 [CDD-1934]
Ki [1, 6]: 27.4 ± 2.4 nM

CNC(=O)[C@H]1C[C@H](n2c(-c3cncc4ccccc34)nc3cccc(C(=O)NC(C)c4ccc(C(F)(F)F)cc4)c32)C1 (stereo partly drawn) [CDD-1829]
Ki [1, 6]: 47.9 ± 4.7 nM
Ki (SARS-COV-2 M^pro-His6; [7]): 45.7 ± 3.7 nM

CNC(=O)CCCn1c(-c2cncc3ccccc23)nc2cccc(C(=O)NCc3ccc4ccccc4c3)c21 [CDD-1925]
Ki [1, 6]: 42.5 nM
Ki (SARS-COV-2 M^pro-His6; [7]): 51.3 ± 7.5 nM

CNC(=O)CCCn1c(-c2ccnc3ccccc23)nc2cccc(C(=O)N[C@@H](C)c3ccc4ccccc4c3)c21 [CDD-1906]
Kiapp (nM)^b [1, 8]: Inactive
Kiapp (nM)^a (SARS-COV-2 M^pro-His6; [9]): Inactive

CNC(=O)CCCn1c(-c2cccc3ccccc23)nc2cccc(C(=O)N[C@@H](C)c3ccc4ccccc4c3)c21 [CDD-1885]
Kiapp (nM)^b [1, 8]: Inactive
Kiapp (nM)^a (SARS-COV-2 M^pro-His6; [9]): Inactive

O=C1CCOc2ccc(-c3cccc4[nH]ncc34)cc21 [CDD-2037]
M^pro Ki [1]: Inactive
M^pro-His Ki (SARS-COV-2 M^pro-His6; [10]): Inactive

COc1cc(-c2cccc3[nH]ncc23)cc(C(=O)CO)c1OCC(=O)N(C)C [CDD-1886]
decrease of M^pro inhibition relative to CDD-1713 [1]: greater than 100 fold
Ki ([1]; read-out: M^pro Ki): 21200 ± 1500 nM
Ki (SARS-COV-2 M^pro-His6; 25 nM enzyme, 15 μM fluorescent peptide, Morrison equation, Inactive = less than 50% inhibition at 25 μM compound, read-out: M^pro-His Ki): 15700 ± 1200 nM

CCOC(=O)/C=C/c1cc(-c2cccc3[nH]ncc23)cc(OC)c1OCC(=O)N(C)C [CDD-1971]
M^pro Ki [1]: Inactive
M^pro-His Ki (SARS-COV-2 M^pro-His6; [10]): Inactive

CCC[C@H](NC(=O)c1cccc2nc(-c3cncc4ccccc34)n(C3CCC3)c12)c1ccc(C(F)(F)F)cc1 [CDD-1806]
solubility [2]: 0.1 µM (≈ 0.0543 µg/mL)
Human Cathepsin B, Fractional Remaining Activity (Human Cathepsin B): 0.94
Ki [1, 11]: 137 nM
Ki [1, 12]: 137 ± 11.6 nM
Ki (SARS-COV-2 M^pro-His6): 165 ± 12.9 nM

COc1cc(-c2cccc3[nH]ncc23)ccc1OCC(=O)N(C)C [CDD-1793, 2-(4-(1H-indazol-4-yl)-2-methoxyphenoxy)-N,N-dimethylacetamide]
M^pro inhibition (in words) [1]: completely abolished the activity
M^pro Ki [1]: Inactive
Ki,app [1]: Inactive
M^pro-His Ki (SARS-COV-2 M^pro-His6; [10]): Inactive

CCC[C@H](NC(=O)c1cccc2nc(-c3cncc4ccccc34)n(C(C)C)c12)c1ccc(C(F)(F)F)cc1 [CDD-1804]
Kiapp (nM)^b [1, 8]: Inactive
Kiapp (nM)^a (SARS-COV-2 M^pro-His6; [9]): Inactive

COc1cc(-c2cccc3c2cnn3C)cc(C=O)c1OCC(=O)N(C)C [CDD-1847, 2-(2-formyl-6-methoxy-4-(1-methyl-1H-indazol-4-yl)phenoxy)-N,N-dimethylacetamide]
M^pro inhibition (in words) [1]: completely lost activity
M^pro Ki [1]: Inactive
M^pro-His Ki (SARS-COV-2 M^pro-His6; [10]): Inactive
prevention of SARS-COV-2 induced cell death (in words) [3]: unable to prevent cell death

CNC(=O)CCCn1c(-c2ccc3cnccc3c2)nc2cccc(C(=O)N[C@@H](C)c3ccc4ccccc4c3)c21 [CDD-1884]
Kiapp (nM)^b [1, 8]: Inactive
Kiapp (nM)^a (SARS-COV-2 M^pro-His6; [9]): Inactive

COc1cc(-c2cccc3[nH]ncc23)cc(C(C)=O)c1OCC(=O)N(C)C [CDD-1883]
M^pro Ki [1]: Inactive
M^pro-His Ki (SARS-COV-2 M^pro-His6; [10]): Inactive

COc1cc(-c2cccc3[nH]ncc23)cc(CO)c1OCC(=O)N(C)C [CDD-1776]
M^pro inhibition (in words) [1]: completely abolished the activity
M^pro Ki [1]: Inactive
Ki,app [1]: Inactive
M^pro-His Ki (SARS-COV-2 M^pro-His6; [10]): Inactive

CNC(=O)[C@H]1C[C@H](n2c(-c3cncc4ccccc34)nc3cccc(C(=O)NC(C)C)c32)C1 [CDD-1842]
Kiapp (nM)^b [1]: Inactive
Kiapp (nM)^a (SARS-COV-2 M^pro-His6): Inactive

CN(C)C(=O)COc1ccc(-c2cccc3[nH]ncc23)cc1C#N [CDD-2038]
M^pro Ki [1]: Inactive
M^pro-His Ki (SARS-COV-2 M^pro-His6; [10]): Inactive

Cc1nnc2n1-c1ccc(Cl)cc1C(c1ccccc1)=NC2 [Alprazolam, reference compound]
HLM t1/2 (half-life) [4]: 832
MLM t1/2 (half-life) [5]: 296

CCC[C@H](NC(=O)c1cccc2nc(-c3cncc4ccccc34)n([C@H]3C[C@H](C(=O)NC)C3)c12)c1cccc(C(F)(F)F)c1 [CDD-1795]
solubility [2]: 50.4 µM (≈ 30.2 µg/mL)
Human Cathepsin B, Fractional Remaining Activity (Human Cathepsin B): 1.07
Ki [1, 11]: 35.2 nM
Ki [1, 12]: 35.2 ± 4.9 nM
Ki (SARS-COV-2 M^pro-His6; [7]): 29.4 ± 4.3 nM

CCC[C@H](NC(=O)c1cccc2nc(-c3cncc4ccccc34)n([C@H]3C[C@H](C(=O)NC)C3)c12)c1ccccc1 [CDD-1843]
Kiapp (nM)^b [1, 8]: Inactive
Kiapp (nM)^a (SARS-COV-2 M^pro-His6; [9]): Inactive

COC(=O)c1cc(-c2cccc3[nH]ncc23)cc(OC)c1OCC(=O)N(C)C [CDD-1982]
M^pro Ki [1]: Inactive
M^pro-His Ki (SARS-COV-2 M^pro-His6; [10]): Inactive

CNC(=O)CCCn1c(-c2ccc(N)nc2)nc2cccc(C(=O)N[C@@H](C)c3ccc4ccccc4c3)c21 [CDD-1926]
Kiapp (nM)^b [1, 8]: Inactive
Kiapp (nM)^a (SARS-COV-2 M^pro-His6; [9]): Inactive

CCC[C@H](NC(=O)c1cccc2nc(-c3cncc4ccccc34)n([C@H]3CC[C@H](C(=O)NC)C3)c12)c1ccc(C(F)(F)F)cc1 [CDD-1790]
solubility [2]: 52.1 µM (≈ 32 µg/mL)
Ki [1, 11]: 663 nM
Ki [1, 6]: 663 ± 66 nM
Ki (SARS-COV-2 M^pro-His6; [7]): 621 ± 46 nM

CNC(=O)CCCn1c(-c2ccc3cccnc3n2)nc2cccc(C(=O)N[C@@H](C)c3ccc4ccccc4c3)c21 [CDD-1905]
Kiapp (nM)^b [1, 8]: Inactive
Kiapp (nM)^a (SARS-COV-2 M^pro-His6; [9]): Inactive

CCC[C@H](NC(=O)c1cccc2nc(-c3cncc4ccccc34)n(CCCC(=O)NC)c12)c1ccc(C(F)(F)F)cc1 [CDD-1830]
Ki [1, 6]: 6.5 ± 1 nM
Ki (SARS-COV-2 M^pro-His6; [7]): 5.6 ± 0.5 nM

C[C@H](NC(=O)c1cccc2nc(-c3cncc4ccccc34)n(CCCC(=O)O)c12)c1ccc2ccccc2c1 [CDD-1972]
Ki [1, 6]: 87.9 ± 8.4 nM

CNC(=O)[C@H]1C[C@H](n2c(-c3cncc4ccccc34)nc3cccc(C(=O)N[C@@H](C)c4ccccc4)c32)C1 [CDD-1841]
Ki [1, 6]: 565 ± 55.3 nM
Ki (SARS-COV-2 M^pro-His6; [7]): 571 ± 72.7 nM

CNC(=O)CCCn1c(-c2cnccc2C)nc2cccc(C(=O)N[C@@H](C)c3ccc4ccccc4c3)c21 [CDD-1924]
Ki [1, 6]: 426 ± 46.4 nM
